The test system of test [1] is Citrobacter freundii. In words: In vitro minimal inhibitory concentration (MIC) of compound in combination with Ceftazidime (CAZ) showed synergic activity against Citrobacter freundii 44032. The format is functional.
Test [2] has as its system Citrobacter freundii. In words: In vitro minimal inhibitory concentration (MIC) of compound in combination with Ceftazidime (CAZ) showed synergic activity against Citrobacter freundii CT 76. The format is functional.
In test [3] the test system is Klebsiella aerogenes. In words: In vitro minimal inhibitory concentration (MIC) of compound in combination with Ceftazidime (CAZ) showed synergic activity against Enterobacter aerogenes S-97. The format is functional.
The test system of test [4] is Klebsiella aerogenes. In words: In vitro minimal inhibitory concentration (MIC) of compound in combination with Ceftazidime (CAZ) showed synergic activity against Enterobacter aerogenes 41003. The format is functional.
Test [5] concerns Klebsiella aerogenes. In words: In vitro minimal inhibitory concentration (MIC) of compound in combination with Ceftazidime (CAZ) showed synergic activity against Enterobacter aerogenes 41004. The format is functional.
In test [6] the test system is Klebsiella aerogenes. In words: In vitro minimal inhibitory concentration (MIC) of compound in combination with Ceftazidime (CAZ) showed synergic activity against Enterobacter aerogenes 41006. The format is functional.
Test [7] concerns Enterobacter cloacae. Kind of test: In vitro minimal inhibitory concentration (MIC) of compound in combination with Ceftazidime (CAZ) showed synergic activity against Enterobacter cloacae S-65. The format is functional.
Test [8] deals with Enterobacter cloacae. Kind of test: In vitro minimal inhibitory concentration (MIC) of compound in combination with Ceftazidime (CAZ) showed synergic activity against Enterobacter cloacae S-11. The format is functional.
Test [9] deals with Enterobacter cloacae. Kind of test: In vitro minimal inhibitory concentration (MIC) of compound in combination with Ceftazidime (CAZ) showed synergic activity against Enterobacter cloacae 40011. The format is functional.
Test [10] has as its system Enterobacter cloacae. Kind of test: In vitro minimal inhibitory concentration (MIC) of compound in combination with Ceftazidime (CAZ) showed synergic activity against Enterobacter cloacae E40002. The format is functional.
Test [11] concerns Enterobacter cloacae. Kind of test: In vitro minimal inhibitory concentration (MIC) of compound in combination with Ceftazidime (CAZ) showed synergic activity against Enterobacter cloacae P99. The format is functional.
The subject of test [12] is Escherichia coli. Kind of test: In vitro minimal inhibitory concentration (MIC) of compound in combination with Ceftazidime (CAZ) showed synergic activity against Escherichia coli TEM 3. The format is functional.
Test [13] relates to Escherichia coli. In words: In vitro minimal inhibitory concentration (MIC) of compound in combination with Ceftazidime (CAZ) showed synergic activity against Escherichia coli TEM 7. The format is functional.
In test [14] the test system is Klebsiella pneumoniae. In words: In vitro minimal inhibitory concentration (MIC) of compound in combination with Ceftazidime (CAZ) showed synergic activity against Klebsiella pneumoniae CTX 1. The format is functional.
In test [15] the test system is Morganella morganii. Kind of test: In vitro minimal inhibitory concentration (MIC) of compound in combination with Ceftazidime (CAZ) showed synergic activity against Morganella morganii 36014. The format is functional.
Test [16] relates to Morganella morganii. In words: In vitro minimal inhibitory concentration (MIC) of compound in combination with Ceftazidime (CAZ) showed synergic activity against Morganella morganii 36030. The format is functional.
Test [17] relates to Pseudomonas aeruginosa. Kind of test: In vitro minimal inhibitory concentration (MIC) of compound in combination with Ceftazidime (CAZ) showed synergic activity against Pseudomonas aeruginosa 46220 (DR-2). The format is functional.
Test [18] has as its system Proteus vulgaris. Kind of test: In vitro minimal inhibitory concentration (MIC) of compound in combination with Ceftazidime (CAZ) showed synergic activity against Proteus vulgaris CT 106. The format is functional.
Test [19] relates to Pseudomonas aeruginosa. Kind of test: microbe, parasite or virus in culture.
Test [20] relates to Pseudomonas aeruginosa. In words: microbe, parasite or virus in culture. This is another data set of the same source.
In test [21] the test system is Citrobacter freundii. Kind of test: In vitro minimal inhibitory concentration of compound against Citrobacter freundii 2046E. The format is functional.
Test [22] relates to Citrobacter freundii. In words: In vitro minimal inhibitory concentration of compound against Citrobacter freundii 44032. The format is functional.
Test [23] relates to Escherichia coli. Kind of test: In vitro minimal inhibitory concentration of compound against Escherichia coli OXA 1. The format is functional.
Test [24] relates to Escherichia coli. Kind of test: In vitro minimal inhibitory concentration of compound against Escherichia coli OXA 3. The format is functional.
Test [25] deals with Escherichia coli. Kind of test: In vitro minimal inhibitory concentration of compound against Escherichia coli SHV 1. The format is functional.
The test system of test [26] is Escherichia coli. Kind of test: In vitro minimal inhibitory concentration of compound against Escherichia coli SHV 5. The format is functional.
For test [27], the system named is Escherichia coli. Kind of test: In vitro minimal inhibitory concentration of compound against Escherichia coli TEM 3. The format is functional.
Test [28] deals with Escherichia coli. Kind of test: In vitro minimal inhibitory concentration of compound against Escherichia coli TEM 7. The format is functional.
For test [29], the system named is Klebsiella aerogenes. In words: In vitro minimal inhibitory concentration of compound against Enterobacter aerogenes 41003. The format is functional.
Test [30] has as its system Klebsiella aerogenes. In words: In vitro minimal inhibitory concentration of compound against Enterobacter aerogenes 41004. The format is functional.
Test [31] relates to Klebsiella aerogenes. Kind of test: In vitro minimal inhibitory concentration of compound against Enterobacter aerogenes 41006. The format is functional.
For test [32], the system named is Enterobacter cloacae. In words: In vitro minimal inhibitory concentration of compound against Enterobacter cloacae 40011. The format is functional.
Test [33] concerns Enterobacter cloacae. In words: In vitro minimal inhibitory concentration of compound against Enterobacter cloacae 40015. The format is functional.
Test [34] concerns Enterobacter cloacae. In words: In vitro minimal inhibitory concentration of compound against Enterobacter cloacae P99. The format is functional.
In test [35] the test system is Klebsiella pneumoniae. In words: In vitro minimal inhibitory concentration of compound against Klebsiella pneumoniae CTX 1. The format is functional.
For test [36], the system named is Morganella morganii. Kind of test: In vitro minimal inhibitory concentration of compound against Morganella morganii 36014. The format is functional.
The subject of test [37] is Pseudomonas aeruginosa. In words: In vitro minimal inhibitory concentration of compound against Pseudomonas aeruginosa 46220 (DR-2). The format is functional.
Test [38] relates to Proteus vulgaris. Kind of test: In vitro minimal inhibitory concentration of compound against Proteus vulgaris CT 106. The format is functional.
Another test concerns Serratia marcescens. Kind of test: In vitro minimal inhibitory concentration of compound against Serratia marcescens 200 L. The format is functional.
The subject of test [39] is Staphylococcus aureus. Kind of test: In vitro minimal inhibitory concentration of compound against Staphylococcus aureus 80K. The format is functional.
The test system of test [40] is Staphylococcus aureus. Kind of test: In vitro minimal inhibitory concentration of compound against Staphylococcus aureus 54K. The format is functional.
For test [41], the system named is Pseudomonas aeruginosa. In words: microbe, parasite or virus in culture. The source holds these as a separate data set.
Description: In vitro minimal inhibitory concentration (MIC) of compound against Pseudomonas aeruginosa CT-122 in combination with Ceftazidime (CAZ)
In test [42] the test system is Pseudomonas aeruginosa. Kind of test: microbe, parasite or virus in culture. This is another data set of the same source.
[43] abbreviates: Morganella morganii, read-out: MIC.

In brackets after ≈: the same amount, converted by molar mass. Where only a bound is given, the exact number is not on record here.

On to `CC(C)(O/N=C(\C(=O)NC1C(=O)N2C(C(=O)[O-])=C(C[n+]3ccccc3)CSC12)c1csc(N)n1)C(=O)O.C[C@]1(Cn2ccnn2)[C@H](C(=O)[O-])N2C(=O)CC2S1(=O)=O.[Na+]` (centres undefined), for which the MIC with Citrobacter freundii [1] was determined as 200 µg/mL; in the test with Citrobacter freundii [2] it was 50 µg/mL; in the test with Klebsiella aerogenes [3], 1 µg/mL; with Klebsiella aerogenes [4] it was 12.5 µg/mL; in the test with Klebsiella aerogenes [5] it was 12.5 µg/mL; in the test with Klebsiella aerogenes [6], 100 µg/mL. Moreover, the MIC in the test on Enterobacter cloacae [7] is below 0.25 µg/mL; in the test on Enterobacter cloacae [8], below 0.25 µg/mL; with Enterobacter cloacae [9], 3.13 µg/mL; with Enterobacter cloacae [10] it was 200 µg/mL; with Enterobacter cloacae [11], 12.5 µg/mL; in the test with Escherichia coli [12] it was at most 0.2 µg/mL. In addition, the MIC was at most 0.2 µg/mL in the test on Escherichia coli [13]; 0.78 µg/mL in the test on Klebsiella pneumoniae [14]; “<=0.2 ug ml-1” in the test with Morganella morganii [15]; below 0.25 µg/mL in the test on Morganella morganii [15] (setting [43]); below 0.25 µg/mL in the test on Morganella morganii [16]; 25 µg/mL in the test with Pseudomonas aeruginosa [17]. Moreover, the values for the MIC in the test with Proteus vulgaris [18], in the test with Pseudomonas aeruginosa [19] and against Pseudomonas aeruginosa [20] were 0.39 µg/mL, 32 µg/mL and 16 µg/mL, respectively.

Take `CCN1CCN(C(=O)N[C@@H](C(=O)N[C@@H]2C(=O)N3[C@@H]2SC(C)(C)[C@@H]3C(=O)O)c2ccccc2)C(=O)C1=O` [PIPERACILLIN]: the MIC against Citrobacter freundii [21] was above 400 µg/mL; in the test on Citrobacter freundii [22], 200 µg/mL (≈ 386 µM); against Escherichia coli [23], 25 µg/mL (≈ 48.3 µM); against Escherichia coli [24], 3.13 µg/mL (≈ 6.05 µM); in the test with Escherichia coli [25], above 400 µg/mL; with Escherichia coli [26] it was 200 µg/mL (≈ 386 µM). For the same molecule, the MIC against Escherichia coli [27] was 200 µg/mL (≈ 386 µM); with Escherichia coli [28], above 400 µg/mL; in the test on Klebsiella aerogenes [29], 12.5 µg/mL (≈ 24.2 µM); against Klebsiella aerogenes [30], 12.5 µg/mL (≈ 24.2 µM); against Klebsiella aerogenes [31], 100 µg/mL (≈ 193 µM); in the test with Enterobacter cloacae [32] it was 50 µg/mL (≈ 96.6 µM). Moreover, the MIC is 100 µg/mL (≈ 193 µM) with Enterobacter cloacae [33]; 100 µg/mL (≈ 193 µM) with Enterobacter cloacae [34]; above 400 µg/mL in the test on Klebsiella pneumoniae [35]; 50 µg/mL (≈ 96.6 µM) against Morganella morganii [36]; 100 µg/mL (≈ 193 µM) in the test with Pseudomonas aeruginosa [37]; 200 µg/mL (≈ 386 µM) against Proteus vulgaris [38]. Further, the values for the MIC against Serratia marcescens, against Staphylococcus aureus [39] and with Staphylococcus aureus [40] were 200 µg/mL (≈ 386 µM), 50 µg/mL (≈ 96.6 µM) and 200 µg/mL (≈ 386 µM), respectively.

With `CC(C)(O/N=C(\C(=O)N[C@@H]1C(=O)N2C(C(=O)[O-])=C(C[n+]3ccccc3)CS[C@H]12)c1csc(N)n1)C(=O)O.CC1(C)[C@H](C(=O)[O-])N2C(=O)[C@@H]([C@@H](O)c3ccccc3)[C@H]2S1(=O)=O.[Na+]`, the MIC in the test with Klebsiella aerogenes [3] was 2 µg/mL; in the test with Enterobacter cloacae [7], below 0.25 µg/mL; in the test on Enterobacter cloacae [8], below 0.25 µg/mL; in the test on Morganella morganii [15] (setting [43]), below 0.25 µg/mL; in the test on Morganella morganii [16] it was below 0.25 µg/mL; against Pseudomonas aeruginosa [41], 32 µg/mL. For the same molecule, the MIC against Pseudomonas aeruginosa [42] is 16 µg/mL.
